Tests used:
[1] = target: T1, Transcription initiation factor TFIID subunit 1 [1504-1635] (Homo sapiens, UniProt P21675); experiment: TR-FRET Binding Assay
T1 construct: 1504-1635
T1 sequence (P21675 whole entry): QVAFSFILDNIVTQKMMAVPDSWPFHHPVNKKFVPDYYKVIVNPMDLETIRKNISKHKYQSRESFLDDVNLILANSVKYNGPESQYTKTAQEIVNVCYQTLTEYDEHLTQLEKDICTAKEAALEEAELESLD
Description: After a 10 minute incubation at room temperature, biotin-ligand (0.04 uM final) was added. […] After forty minutes of equilibration at room temperature, the plates were read on an Envision instrument and IC50s calculated using a four parameter logistic model (XLFIT).

[2] = target: T2, Transcription initiation factor TFIID subunit 1 [1381-1497] (Homo sapiens, UniProt P21675); experiment: TAF1-BD1 TR-FRET Binding Assay
T2 construct: 1381-1497
T2 sequence (P21675 whole entry): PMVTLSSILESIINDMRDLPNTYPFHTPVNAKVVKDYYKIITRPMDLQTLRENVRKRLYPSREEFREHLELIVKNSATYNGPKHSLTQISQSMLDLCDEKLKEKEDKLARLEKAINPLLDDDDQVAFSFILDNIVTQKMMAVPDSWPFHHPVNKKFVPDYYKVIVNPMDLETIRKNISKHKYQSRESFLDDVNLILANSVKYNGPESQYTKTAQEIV
Description: Specifically, in a 384 well ProxiPlate, TAF1-BDI (0.08 uM final) in 50 mM HEPES (pH 7.5; final), 50 mM NaCl (final), 1 mM TCEP (final), 0.1 mg/mL BSA (final), and 0.069 mM Brij-35 (final) was added either in the presence of DMSO (final 0.2% DMSO) or compound dilution series in DMSO. After a 10 minute incubation at room temperature, biotin-ligand (0.08 uM final) was added. After 10 minutes incubation at room temperature, a mixture Eu-W1024 Anti-6×His antibody (Perkin Elmer ADO 110) and SureLight Streptavidin-Allophycocyanin (SA-APC, Perkin Elmer CR130-100) were added to final concentrations of 0.2 nM antibody and 0.05 uM SA-APC, respectively. After forty minutes of equilibration at room temperature, the plates were read on an Envision instrument and IC50s calculated using a four parameter logistic model (XLFIT).

## CCOC(=O)c1c(C)[nH]c2c(=O)n(C)cc(C#CC(O)(c3ccc(N(C)C)cc3)C(F)(F)F)c12 (stereo unspecified) [US10202378, Example 3]
[1]
  IC50: 86.3 nM
[2]
  IC50: 209 nM

## CCOC(=O)c1c(C)[nH]c2c(=O)n(C)cc(C#CC(C)(O)C3(C)CC3)c12 (stereo unspecified) [US10202378, Example 4]
[1]
  IC50: 72.7 nM
[2]
  IC50: 352 nM

## CCOC(=O)c1c(C)[nH]c2c(=O)n(C)cc(C#CC(C)(O)C3CCOC3)c12 (stereo unspecified) [US10202378, Example 7]
[1]
  IC50: 181 nM
[2]
  IC50: 607 nM

## CCOC(=O)c1c(C)[nH]c2c(=O)n(C)cc(C#CC3(O)CCN(C(=O)CC)CC3)c12 [US10202378, Example 10]
[1]
  IC50: 58.9 nM
[2]
  IC50: 2230 nM

## CCOC(=O)c1c(C)[nH]c2c(=O)n(C)cc(C#CC3(O)CCN(C(C)=O)CC3)c12 [US10202378, Example 11]
[1]
  IC50: 80 nM
[2]
  IC50: 1490 nM

## CCOC(=O)c1c(C)[nH]c2c(=O)n(C)cc(C#CC(C)(O)CNc3ccccc3)c12 (stereo unspecified) [US10202378, Example 14]
[1]
  IC50: 14800 nM
[2]
  IC50: > 20000 nM

## CCOC(=O)c1c(C)[nH]c2c(=O)n(C)cc(C#CC(C)(O)c3cccc(C)c3)c12 (stereo unspecified) [US10202378, Example 29]
[1]
  IC50: 50.9 nM
[2]
  IC50: 303 nM

## CCOC(=O)c1c(C)[nH]c2c(=O)n(CC3CC3)cc(C#CC(C)(C)O)c12 [US10202378, Example 52]
[1]
  IC50: 155 nM
[2]
  IC50: 8660 nM

## CCOC(=O)c1c(C)[nH]c2c(=O)n(C)cc(C#CC(C)(O)CC)c12 (stereo unspecified) [US10202378, Example 65]
[1]
  IC50: 135 nM
[2]
  IC50: 826 nM

## CCOC(=O)c1c(C)[nH]c2c(=O)n(C)cc(C#CC(C)(O)CO)c12 (stereo unspecified) [US10202378, Example 66]
[1]
  IC50: 100 nM
[2]
  IC50: 798 nM

## CCOC(=O)c1c(C)[nH]c2c(=O)n(C)cc(C#CC(C)(C)N)c12 [US10202378, Example 67]
[1]
  IC50: 4110 nM
[2]
  IC50: 5210 nM

## CCOC(=O)c1c(C)[nH]c2c(=O)n(C)cc(C#CC(C)(O)c3nccs3)c12 (stereo unspecified) [US10202378, Example 68]
[1]
  IC50: 122 nM
[2]
  IC50: 521 nM

## CCOC(=O)c1c(C)[nH]c2c(=O)n(C)cc(C#CC(C)(O)C3CC3)c12 (stereo unspecified) [US10202378, Example 77]
[1]
  IC50: 49 nM
[2]
  IC50: 243 nM

## CCC(C)(C)OC(=O)c1c(C)[nH]c2c(=O)n(C)cc(C#CC(C)(O)C3CC3)c12 (stereo unspecified) [US10202378, Example 138]
[1]
  IC50: 47.9 nM
[2]
  IC50: 251 nM

## CC(=O)NCCCOC(=O)c1c(C)[nH]c2c(=O)n(C)cc(C#CC(C)(O)C3CC3)c12 (stereo unspecified) [US10202378, Example 140]
[1]
  IC50: 37.5 nM
[2]
  IC50: 350 nM

## Cc1cc([C@](C)(O)C#Cc2cn(C)c(=O)c3[nH]c(C)c(C(=O)OC(C)C(C)C)c23)no1 (stereo partly specified) [US10202378, Example 142]
[1]
  IC50: 52.8 nM
[2]
  IC50: 160 nM

## CC(=O)N1CCC(COC(=O)c2c(C)[nH]c3c(=O)n(C)cc(C#CC(C)(C)O)c23)CC1 [US10202378, Example 144]
[1]
  IC50: 20.1 nM
[2]
  IC50: 267 nM

## CCC(C)C(C)OC(=O)c1c(C)[nH]c2c(=O)n(C)cc(C#CC(C)(C)O)c12 (stereo unspecified) [US10202378, Example 145]
[1]
  IC50: 53.3 nM
[2]
  IC50: 272 nM

## Cc1[nH]c2c(=O)n(C)cc(C#CC(C)(C)O)c2c1C(=O)OC(C)C(C)C (stereo unspecified) [US10202378, Example 152]
[1]
  IC50: 53.6 nM
[2]
  IC50: 235 nM

## Cc1[nH]c2c(=O)n(C)cc(C#CC(C)(C)O)c2c1C(=O)OCC1CC1 [US10202378, Example 155]
[1]
  IC50: 52.8 nM
[2]
  IC50: 274 nM

## Cc1[nH]c2c(=O)n(C)cc(C#CC(C)(O)c3ccccc3)c2c1C(=O)OC(C)C (stereo unspecified) [US10202378, Example 161]
[1]
  IC50: 51.1 nM
[2]
  IC50: 274 nM

## CN(C)C(=O)c1c[nH]c2c(=O)n(C)cc(C#CC(C)(C)O)c12 [US10202378, Example 171]
[1]
  IC50: 1730 nM
[2]
  IC50: 4420 nM

## Cc1[nH]c2c(=O)n(C)cc(C#CC(C)(O)C3CC3)c2c1-c1nnc(CO)o1 (stereo unspecified) [US10202378, Example 206]
[1]
  IC50: 73.5 nM
[2]
  IC50: 425 nM

Reference: BindingDB's records for patent US10202378 (Genentech, 2019)
